Results published in patent US10881720B2, “Nanoparticles for immune stimulation” (THE BOARD OF REGENTS OF THE UNIVERSITY OF TEXAS SYSTEM, priority 2014, dated 2021).

Tests used:
[1] = test system: iNKT cells; assay: In vitro CFSE-dilution proliferation of iNKT cells in splenocyte culture; type: cell-based, WT C57BL/6 mice; conditions: for percent of iNKT cells proliferated (CFSE dilution): three days of culture
Procedure: (§1) Even activation of both iNKT and B cells by the weak agonist, soluble βGlcCer was enhanced by encapsulation of this glycolipid in nanoparticles (βGC-NanoP). Nanoparticles lacking glycolipids were not stimulatory for either iNKT or B cells in this assay (data not shown). Nanoparticles were assessed by Mass Spectrometry and Scanning Electron Microscopy for lipid content and particle size. In the study, spleen cells were isolated, then labeled with carboxyfluorescein diacetate succinimidyl ester (CFSE) and cultured for 3 days with soluble αGalCer, soluble βGlcCer, αGC-NanoPs, or βGC-NanoPs at concentrations of glycolipid noted. […] FIG. 2B is a graph showing a summary of the data in FIG. 2A. […] FIGS. 2C and 2D show the percentage of B220+ cells that dilute CFSE after 3 days of in vitro culture with soluble αGalCer and αGC-NanoP (FIG. 2C), or soluble βGlcCer and βGC-NanoP (FIG. 2D). Results shown are representative of 2 experiments, duplicate wells. *=p≤0.05 as compared to soluble glycolipid.
Total spleen cells from WT C57BL/6 mice were removed, a single cell suspension was created, and red blood cells were lysed. Splenocytes were labeled with carboxyfluorescein succinimidyl ester (CFSE) using standard procedures and then cultured at 2×10^6 cells/well in a 96 well flat bottom tissue culture plate. At the initiation of this culture, cells were coincubated with 10 pg/ml or 10 ng/ml of αGalCer, βGlcCer, αGC-NanoP, βGC-NanoP, or left in media only. After three days of culture, cells were removed from the wells, labeled with fluorescently tagged lineage specific markers (anti-B220 for B cells and anti-TcRβ plus CD1d-tetramer for iNKT cells) and assessed for cell type specific CFSE dilution by FACS analysis. […] In comparison, 39% of iNKT cells proliferated in response to αGC-NanoP at the 10 ng/ml dose and 35% responded vigorously to the 10 pg/ml dose.

[2] = test system: splenic B cells; assay: In vitro CFSE-dilution proliferation of B220+ B cells in splenocyte culture; type: cell-based, WT C57BL/6 mice; conditions: over the doses tested (10 pg/ml, 10 ng/ml), three days
Procedure: as §1
Total spleen cells from WT C57BL/6 mice were removed, a single cell suspension was created, and red blood cells were lysed. […] After three days of culture, cells were removed from the wells, labeled with fluorescently tagged lineage specific markers (anti-B220 for B cells and anti-TcRβ plus CD1d-tetramer for iNKT cells) and assessed for cell type specific CFSE dilution by FACS analysis. […]

| Compound | percent of iNKT cells proliferated (CFSE dilution) ([1]; 10 pg/ml glycolipid) | percent of iNKT cells proliferated (CFSE dilution) ([1]; 10 ng/ml glycolipid) [%] | B cell proliferation (CFSE dilution) [2] | stimulation of iNKT cells ([1]; either dose tested (10 pg/ml, 10 ng/ml), three days) |
| --- | --- | --- | --- | --- |
| CCCCCCCCCCCCCCCCCCCCCCCCCC(=O)N[C@@H](CO[C@H]1O[C@H](CO)[C@H](O)[C@H](O)[C@H]1O)[C@H](O)[C@H](O)CCCCCCCCCCCCCC [αGalCer, αGalactosylceramide] | not responsive | 44 | only to the higher doses |  |
| βGlucosylceramide [βGlcCer] |  |  | not to the doses tested | neither βGlcCer alone nor βGC-NanoP were stimulatory |
